Measurements as given in patent US6521627B1, “5-Iodo-4-phenethylaminopyrimidine derivative, intermediate thereof, processes for producing the same and agricultural and horticultural pesticides” (UBE Industries, Ltd., priority 1998, dated 2003).

Columns and labels:
diamondback moth = assay: Test of effect on diamondback moth; type: in vivo, diamondback moths (3rd instar larvae); settings: wettable powder diluted to 300 ppm; cabbage leaves dipped for 30 seconds; 25° C., after 2 days
Experimental: (3) Test of effect on diamondback moth The respective wettable powders of Compounds (1) shown in Table 2 prepared as in Example 3 were diluted to 300 ppm with water containing a surfactant (0.01%), and in these respective chemical solutions, cabbage leaves (5×5 cm) were dipped for 30 seconds, and each leaf was put into the respective plastic cups and air-dried. Subsequently, 10 diamondback moths (3rd instar larvae) were placed in the respective cups, and put the lids on them and they were left to stand in a thermostat chamber at 25° C., and after 2 days, insecticidal rate was determined by counting living and dead insects in the respective cups.

green rice leafhopper = assay: Test of effect on green rice leafhopper; type: in vivo, green rice leafhoppers (4th instar larvae); settings: wettable powder diluted to 300 ppm; young seedlings of rice dipped for 30 seconds; 25° C., after 4 days
Experimental: (§1) (5) Test of effect on green rice leafhopper The respective wettable powders of Compounds (1) shown in Table 2 prepared as in Example 3 were diluted to 300 ppm with water containing a surfactant (0.01%), and in these respective chemical solutions, young seedlings of rice were dipped for 30 seconds, and after air-drying, each was put into the respective glass cylinders. Subsequently, 10 green rice leafhoppers (4th instar larvae) were placed in the respective glass cylinders, and porous stoppers were each placed on them and they were left to stand in a thermostat chamber at 25° C., and after 4 days, insecticidal rate was determined by counting living and dead insects in the respective cylinders.

[1] = tested on: southern root knot nematodes; assay: Test of effect on southern root knot nematodes; type: in vivo, southern potato root knot nematodes; settings: wettable powder diluted to 300 ppm, 0.1 ml plus 0.9 ml solution containing 500 nematodes; 25° C., after 2 days
Experimental: (1) Test of effect on southern root knot nematodes The respective wettable powders of Compounds (1) shown in Table 2 prepared as in Example 3 were diluted to 300 ppm with water, 0.1 ml of which is taken into the test tubes, and 0.9 ml of a solution containing 500 southern potato root knot nematodes was added thereto, respectively. Subsequently, these test tubes were left to stand in a thermostat chamber at 25° C., and after 2 days, nematodecidal rate was determined by observing with microscope.

tobacco cutworm = assay: Test of effect on tobacco cutworm; type: in vivo, tobacco cutworm (2nd instar larvae); settings: wettable powder diluted to 500 ppm; soybean leaves dipped for 30 seconds; 25° C., after 2 days
Experimental: (6) Test of effect on tobacco cutworm The respective wettable powders of Compounds (1) shown in Table 2 prepared as in Example 3 were diluted to 500 ppm with water containing a surfactant (0.01%), and in these respective chemical solutions, leave of soybean were dipped for 30 seconds. After air-drying, each of the leave was put into the respective plastic cups, 10 tobacco cutworm (2nd instar larvae) were placed in the respective cups, and put the lids on them and they were left to stand in a thermostat chamber at 25° C. After 2 days, insecticidal rate was determined by counting living and dead insects in the respective cups.

brown rice planthopper = assay: Test of effect on brown rice planthopper; type: in vivo, brown rice planthoppers (4th instar larvae); settings: wettable powder diluted to 300 ppm; young seedlings of rice dipped for 30 seconds; 25° C., after 4 days
Experimental: as §1, with “(4)” for “(5)”, “brown” for “green”, “planthopper” for “leafhopper”, “planthoppers” for “leafhoppers”

CC(=O)OC(C)c1ncnc(NCCc2ccc(OC(F)(F)F)cc2)c1I (centres unmarked) [1-(21), 6-(1-acetoxyethyl)-5-iodo-4-[2-(4-trifluoromethoxyphenyl)ethylamino]pyrimidine]
melting point: 77 to 79 °C

CC(F)c1ncnc(NCCc2ccc(OC(F)(F)F)cc2)c1I (centres unmarked) [1-(23), 6-(1-fluoroethyl)-5-iodo-4-[2-(4-trifluoromethoxyphenyl)ethylamino]pyrimidine]
insecticidal effect (insecticidal rate) (diamondback moth): 100% | insecticidal effect (insecticidal rate) (green rice leafhopper): 100% | nematodecidal effect (nematodecidal rate) [1]: 100% | insecticidal effect (insecticidal rate) (tobacco cutworm): 100% | insecticidal effect (insecticidal rate) (brown rice planthopper): 100%

CC(F)c1ncnc(NCCc2ccccc2)c1I (centres unmarked) [Compound 1-(1), 6-(1-fluoroethyl)-5-iodo-4-(2-phenylethylamino)pyrimidine]
insecticidal effect (insecticidal rate) (diamondback moth): 100% | insecticidal effect (insecticidal rate) (green rice leafhopper): 100% | nematodecidal effect (nematodecidal rate) [1]: 100% | insecticidal effect (insecticidal rate) (brown rice planthopper): 100%

CC(Cl)c1ncnc(NCCc2ccccc2)c1I (centres unmarked) [Compound 1-(2), 6-(1-chloroethyl)-5-iodo-4-(2-phenylethylamino)pyrimidine]
melting point: 101 to 102 °C

CC(=O)OC(C)c1ncnc(NCCc2ccccc2)c1I (stereo not drawn) [Compound 1-(3), 6-(l-acetoxyethyl)-5-iodo-4-(2-phenylethylamino)pyrimidine]
insecticidal effect (insecticidal rate) (diamondback moth): 100%

CC(F)c1ncnc(NCCc2ccc(F)cc2)c1I (centres unmarked) [Compound 1-(5), 6-(1-fluoroethyl)-5-iodo-4-[2-(4-fluorophenyl)ethylamino]pyrimidine]
insecticidal effect (insecticidal rate) (diamondback moth): 100% | insecticidal effect (insecticidal rate) (green rice leafhopper): 100% | nematodecidal effect (nematodecidal rate) [1]: 100% | insecticidal effect (insecticidal rate) (tobacco cutworm): 100% | insecticidal effect (insecticidal rate) (brown rice planthopper): 100%
